# Assay results published in US9233983B2, “Substituted hetero-bicyclic compounds, compositions and medicinal applications thereof” (ADVINUS THERAPEUTICS LIMITED, priority 2012, dated 2016).
# Read-outs that look alike come from different tables or passages of the source.
# Legend:
# [1] = target: human Bruton's Tyrosine Kinase (Btk) (Homo sapiens (Human), UniProt Q06187); assay: Recombinant Human Bruton's Tyrosine Kinase (Btk) Inhibition Assay (HTRF KinEASE-TK); type: biochemical; settings: 20 ng/ml rhBtk, 77 μM ATP (KM), 1 μM TK-Biotin substrate, 90 min; read-out: hBTK IC50
# Sequence of human Bruton's Tyrosine Kinase (Btk) (Q06187 whole entry): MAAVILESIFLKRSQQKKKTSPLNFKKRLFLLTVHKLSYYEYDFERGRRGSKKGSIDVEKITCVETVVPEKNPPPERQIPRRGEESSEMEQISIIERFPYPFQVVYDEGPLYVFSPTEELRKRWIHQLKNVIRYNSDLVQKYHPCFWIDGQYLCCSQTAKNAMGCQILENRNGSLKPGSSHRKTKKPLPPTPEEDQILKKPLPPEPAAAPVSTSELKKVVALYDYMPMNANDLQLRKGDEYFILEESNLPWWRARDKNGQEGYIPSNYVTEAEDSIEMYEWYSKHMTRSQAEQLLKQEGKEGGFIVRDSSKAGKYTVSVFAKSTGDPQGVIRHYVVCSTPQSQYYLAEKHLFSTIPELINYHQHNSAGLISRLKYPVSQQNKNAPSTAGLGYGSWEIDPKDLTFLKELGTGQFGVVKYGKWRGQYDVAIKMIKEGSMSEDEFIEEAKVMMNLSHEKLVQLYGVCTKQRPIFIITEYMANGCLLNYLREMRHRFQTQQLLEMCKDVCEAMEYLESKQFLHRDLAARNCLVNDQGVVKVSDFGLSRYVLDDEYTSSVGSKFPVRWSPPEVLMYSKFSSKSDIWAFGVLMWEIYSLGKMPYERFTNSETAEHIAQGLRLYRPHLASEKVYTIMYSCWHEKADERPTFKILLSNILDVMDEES
# [2] = tested on: mouse splenocytes; assay: Inhibition of B Cell Activation as Measured by CD69 Expression in Mouse Splenocytes; type: cell-based; settings: Splenocyte
# Protocol: Inhibition of B Cell Activation as Measured by CD69 Expression in Mouse Splenocytes:
# To test the effect of BTK inhibitors in suppressing B-cell receptor (BCR) mediated activation of B cells, we developed a flow cytometry based assay to analyze CD69 expression in B cell population among total splenocyte from the mouse. […] Finally, cell were cultured in RPMI medium with 10% FBS.
# Test compounds were diluted half log starting from 2 mM in 100% DMSO (200×). 1×10^5 splenocytes were incubated with 1 uL of diluted test compounds in 200 uL culture medium in a U-bottom 96 well plate (Greiner) at 37° C. with 5% CO2 for 30 mins. Control wells received 1 uL of 100% DMSO without any compound. The cells were stimulated with 3 ug/mL goat anti-mouse IgM (Sigma, cat#M8644) and incubated for 18-20 hrs. […] Then the cells were washed 3 times with PBS with 1% FBS and analyzed by Guava Easycyte Mini flow cytometer system (Millipore). Flow cytometry data were analyzed using Weasel software (WEHI, Melbourne). First B cells were gated using CD19 markers. Then expression of CD69 was analyzed as percentage of CD69+ve cells within CD19. Percent activity for each data point was calculated using following formula: […]
# Percentage activity was fit using sigmoid dose response with variable slope logistic equation in Graph-pad Prism 5 software to determine inhibition constant 50 (IC50).
# [3] = C57/BL6 splenocytes, 3 ug/mL goat anti-mouse IgM, 18-20 hrs, CD69+ve cells within CD19, read-out: Mouse spleenocyte IC50
SMILES,IC50 [1] [nM],"IC50 [2, 3] [nM]","IC50 ([2]; Mus musculus, read-out: Mouse spleenocyte IC50 (nM)) [nM]"
"Cc1c(-c2ncnc3[nH]c(-c4ccc(CN5CCC(O)CC5)cc4)cc23)cccc1N1CCc2cc(C3CC3)ccc2C1=O [Example B-22, 6-cyclopropyl-2-[3-[6-[4-[(4-hydroxy-1-piperidyl)methyl]phenyl]-7H-pyrrolo[2,3-d]pyrimidin-4-yl]-2-methyl-phenyl]-3,4-dihydroisoquinolin-1-one]",32.5,137,–
"O=C(CN1CCC1)N1CC=C(c2cc3c(-c4cccc(N5CCOc6cc(C7CC7)cc(F)c6C5=O)c4CO)ccnc3[nH]2)CC1 [Example P-28, 4-[3-[2-[1-[2-(azetidin-1-yl)acetyl]-3,6-dihydro-2H-pyridin-4-yl]-1H-pyrrolo[2,3-b]pyridin-4-yl]-2-(hydroxymethyl)phenyl]-8-cyclopropyl-6-fluoro-2,3-dihydro-1,4-benzoxazepin-5-one]",3.1,–,63
"Cc1c(-c2ncnc3[nH]c(-c4ccc(CN5CCNCC5)cc4)cc23)cccc1N1CCc2cc(C3CC3)ccc2C1=O [Example A-2, 6-cyclopropyl-2-[2-methyl-3-[6-[4-(piperazin-1-ylmethyl)phenyl]-7H-pyrrolo[2,3-d]pyrimidin-4-yl]phenyl]-3,4-dihydroisoquinolin-1-one]",7,165,–
"CCN1CCC(n2cc(-c3cc4c(-c5cccc(-n6ncc7cc(C8CC8)ccc7c6=O)c5CO)ncnc4[nH]3)cn2)CC1 [Example D-13, 6-cyclopropyl-2-[3-[6-[1-(1-ethyl-4-piperidyl)pyrazol-4-yl]-7H-pyrrolo[2,3-d]pyrimidin-4-yl]-2-(hydroxymethyl)phenyl]phthalazin-1-one]",3,65,–
"Cc1c(-c2ncnc3[nH]c(-c4ccc(C(=O)N5CCN(C)CC5)cc4)cc23)cccc1N1CCOc2cc(C3CC3)ccc2C1=O [Example K-1, 8-cyclopropyl-4-[2-methyl-3-[6-[4-(4-methylpiperazine-1-carbonyl)phenyl]-7H-pyrrolo[2,3-d]pyrimidin-4-yl]phenyl]-2,3-dihydro-1,4-benzoxazepin-5-one]",20,147,–
"Cc1c(-c2ncnc3[nH]c(-c4ccc(C(=O)N5CCC(C)(O)CC5)cc4)cc23)cccc1N1CCOc2cc(C3CC3)ccc2C1=O [Example K-4, 8-cyclopropyl-4-[3-[6-[4-(4-hydroxy-4-methyl-piperidine-1-carbonyl)phenyl]-7H-pyrrolo[2,3-d]pyrimidin-4-yl]-2-methyl-phenyl]-2,3-dihydro-1,4-benzoxazepin-5-one]",51,129,–
"Cc1c(-c2nc(N)nc3[nH]c(-c4ccc(CN5CCN(C)CC5)cc4)cc23)cccc1N1CCOc2cc(C3CC3)ccc2C1=O [Example N-1, 4-[3-[2-amino-6-[4-[(4-methylpiperazin-1-yl)methyl]phenyl]-7H-pyrrolo[2,3-d]pyrimidin-4-yl]-2-methyl-phenyl]-8-cyclopropyl-2,3-dihydro-1,4-benzoxazepin-5-one]",33,61,–
"CN1CCC(n2cc(-c3cc4c(-c5cccc(N6CCOc7cc(C8CC8)ccc7C6=O)c5CO)ncnc4[nH]3)cn2)CC1 [Example D-1, 8-cyclopropyl-4-[2-(hydroxymethyl)-3-[6-[1-(1-methyl-4-piperidyl)pyrazol-4-yl]-7H-pyrrolo[2,3-d]pyrimidin-4-yl]phenyl]-2,3-dihydro-1,4-benzoxazepin-5-one]",6,32,–
"CN1CCC(n2cc(-c3cc4c(-c5cccc(-n6ccc7cc(C8CC8)ccc7c6=O)c5CO)ncnc4[nH]3)cn2)CC1 [Example D-3, 6-cyclopropyl-2-[2-(hydroxymethyl)-3-[6-[1-(1-methyl-4-piperidyl)pyrazol-4-yl]-7H-pyrrolo[2,3-d]pyrimidin-4-yl]phenyl]isoquinolin-1-one]",5,43,–
"O=C1c2ccc(C3CC3)cc2OCCN1c1cccc(-c2ccnc3[nH]c(-c4ccc(CN5CCN(CC(F)(F)F)CC5)cn4)cc23)c1CO [Example I-9, 8-cyclopropyl-4-[2-(hydroxymethyl)-3-[2-[5-[[4-(2,2,2-trifluoroethyl)piperazin-1-yl]methyl]-2-pyridyl]-1H-pyrrolo[2,3-b]pyridin-4-yl]phenyl]-2,3-dihydro-1,4-benzoxazepin-5-one]",8,47,–

# Continued, in another order:
IC50 [1] [nM],"IC50 [2, 3] [nM]",SMILES,"IC50 ([2]; Mus musculus, read-out: Mouse spleenocyte IC50 (nM)) [nM]"
2,8,"NC(=O)c1ccc(-c2cc3c(-c4cccc(N5CCOc6cc(C7CC7)ccc6C5=O)c4CO)ccnc3[nH]2)nc1 [Example K-22, 6-[4-[3-(8-cyclopropyl-5-oxo-2,3-dihydro-1,4-benzoxazepin-4-yl)-2-(hydroxymethyl)phenyl]-1H-pyrrolo[2,3-b]pyridin-2-yl]pyridine-3-carboxamide]",–
8,21,"CC1(O)CCN(C(=O)c2ccc(-c3cc4c(-c5cccc(N6CCOc7cc(C8CC8)cc(F)c7C6=O)c5CO)ccnc4[nH]3)nc2)CC1 [Example L-3, 8-cyclopropyl-6-fluoro-4-[2-(hydroxymethyl)-3-[2-[5-(4-hydroxy-4-methyl-piperidine-1-carbonyl)-2-pyridyl]-1H-pyrrolo[2,3-b]pyridin-4-yl]phenyl]-2,3-dihydro-1,4-benzoxazepin-5-one]",–
11,261,"CC(C)N1CC(Oc2ccc(-c3cc4c(-c5cccc(N6CCOc7cc(C8CC8)ccc7C6=O)c5CO)ccnc4[nH]3)cn2)C1 [Example D-12, 8-cyclopropyl-4-[2-(hydroxymethyl)-3-[2-[6-(1-isopropylazetidin-3-yl)oxy-3-pyridyl]-1H-pyrrolo[2,3-b]pyridin-4-yl]phenyl]-2,3-dihydro-1,4-benzoxazepin-5-one]",–
3,125,"CN1CCOC(c2ccc(-c3cc4c(-c5cccc(N6CCOc7cc(C8CC8)ccc7C6=O)c5CO)ccnc4[nH]3)cc2)C1 (stereo not drawn) [Example C-5, 8-cyclopropyl-4-[2-(hydroxymethyl)-3-[2-[4-(4-methylmorpholin-2-yl)phenyl]-1H-pyrrolo[2,3-b]pyridin-4-yl]phenyl]-2,3-dihydro-1,4-benzoxazepin-5-one]",–
14.6,20,"CCN(CC)C(=O)N1CC=C(c2cc3c(-c4cccc(N5CCOc6cc(C7CC7)cc(F)c6C5=O)c4CO)ccnc3[nH]2)CC1 [Example P-19, 4-[4-[3-(8-cyclopropyl-6-fluoro-5-oxo-2,3-dihydro-1,4-benzoxazepin-4-yl)-2-(hydroxymethyl)phenyl]-1H-pyrrolo[2,3-b]pyridin-2-yl]-N,N-diethyl-3,6-dihydro-2H-pyridine-1-carboxamide]",–
6,74,CC1(O)CN(Cc2ccc(-c3cc4c(-c5cccc(N6CCOc7cc(C8CC8)ccc7C6=O)c5CO)ccnc4[nH]3)cc2)C1 [Example B-17],–
3.5,77,"CN1CCCC(F)(c2ccc(-c3cc4c(-c5cccc(N6CCOc7cc(C8CC8)ccc7C6=O)c5CO)ccnc4[nH]3)cc2)C1 (stereo not drawn) [Example J-2, 8-cyclopropyl-4-[3-[2-[4-(3-fluoro-1-methyl-3-piperidyl)phenyl]-1H-pyrrolo[2,3-b]pyridin-4-yl]-2-(hydroxymethyl)phenyl]-2,3-dihydro-1,4-benzoxazepin-5-one]",–
1.2,50,"N#CCC(=O)N1CC=C(c2cc3c(-c4cccc(N5CCOc6cc(C7CC7)cc(F)c6C5=O)c4CO)ccnc3[nH]2)CC1 [Example P-27, 3-[4-[4-[3-(8-cyclopropyl-6-fluoro-5-oxo-2,3-dihydro-1,4-benzoxazepin-4-yl)-2-(hydroxymethyl)phenyl]-1H-pyrrolo[2,3-b]pyridin-2-yl]-3,6-dihydro-2H-pyridin-1-yl]-3-oxo-propanenitrile]",–
2.2,75,"CC(=O)N1CC(N2CC=C(c3cc4c(-c5cccc(N6CCOc7cc(C8CC8)cc(F)c7C6=O)c5CO)ccnc4[nH]3)CC2)C1 [Example R-1, 4-[3-[2-[1-(1-acetylazetidin-3-yl)-3,6-dihydro-2H-pyridin-4-yl]-1H-pyrrolo[2,3-b]pyridin-4-yl]-2-(hydroxymethyl)phenyl]-8-cyclopropyl-6-fluoro-2,3-dihydro-1,4-benzoxazepin-5-one]",–
1,11,"O=C(CO)N1CC=C(c2cc3c(-c4cccc(N5CCOc6cc(C7CC7)cc(F)c6C5=O)c4CO)ccnc3[nH]2)CC1 [Example P-30, 8-cyclopropyl-6-fluoro-4-[3-[2-[1-(2-hydroxyacetyl)-3,6-dihydro-2H-pyridin-4-yl]-1H-pyrrolo[2,3-b]pyridin-4-yl]-2-(hydroxymethyl)phenyl]-2,3-dihydro-1,4-benzoxazepin-5-one]",–
1.4,75,"CC(C)(O)CN1CC=C(c2cc3c(-c4cccc(N5CCOc6cc(C7CC7)cc(F)c6C5=O)c4CO)ccnc3[nH]2)CC1 [Example P-23, 8-cyclopropyl-6-fluoro-4-[2-(hydroxymethyl)-3-[2-[1-(2-hydroxy-2-methyl-propyl)-3,6-dihydro-2H-pyridin-4-yl]-1H-pyrrolo[2,3-b]pyridin-4-yl]phenyl]-2,3-dihydro-1,4-benzoxazepin-5-one]",–
